Experimental data: ChEMBL document CHEMBL5614367, “Hydroxamic acid hybrids: Histone deacetylase inhibitors with anticancer therapeutic potency” (Eur J Med Chem, 2023)
Blank lines part the entries; values can stand above or below the molecule they belong to.

Tests used:
[1] = target: T1, Protein deacetylase HDAC6 (Homo sapiens, UniProt Q9UBN7); assay: Inhibition of HDAC6 (unknown origin)
T1 sequence (Q9UBN7 whole entry): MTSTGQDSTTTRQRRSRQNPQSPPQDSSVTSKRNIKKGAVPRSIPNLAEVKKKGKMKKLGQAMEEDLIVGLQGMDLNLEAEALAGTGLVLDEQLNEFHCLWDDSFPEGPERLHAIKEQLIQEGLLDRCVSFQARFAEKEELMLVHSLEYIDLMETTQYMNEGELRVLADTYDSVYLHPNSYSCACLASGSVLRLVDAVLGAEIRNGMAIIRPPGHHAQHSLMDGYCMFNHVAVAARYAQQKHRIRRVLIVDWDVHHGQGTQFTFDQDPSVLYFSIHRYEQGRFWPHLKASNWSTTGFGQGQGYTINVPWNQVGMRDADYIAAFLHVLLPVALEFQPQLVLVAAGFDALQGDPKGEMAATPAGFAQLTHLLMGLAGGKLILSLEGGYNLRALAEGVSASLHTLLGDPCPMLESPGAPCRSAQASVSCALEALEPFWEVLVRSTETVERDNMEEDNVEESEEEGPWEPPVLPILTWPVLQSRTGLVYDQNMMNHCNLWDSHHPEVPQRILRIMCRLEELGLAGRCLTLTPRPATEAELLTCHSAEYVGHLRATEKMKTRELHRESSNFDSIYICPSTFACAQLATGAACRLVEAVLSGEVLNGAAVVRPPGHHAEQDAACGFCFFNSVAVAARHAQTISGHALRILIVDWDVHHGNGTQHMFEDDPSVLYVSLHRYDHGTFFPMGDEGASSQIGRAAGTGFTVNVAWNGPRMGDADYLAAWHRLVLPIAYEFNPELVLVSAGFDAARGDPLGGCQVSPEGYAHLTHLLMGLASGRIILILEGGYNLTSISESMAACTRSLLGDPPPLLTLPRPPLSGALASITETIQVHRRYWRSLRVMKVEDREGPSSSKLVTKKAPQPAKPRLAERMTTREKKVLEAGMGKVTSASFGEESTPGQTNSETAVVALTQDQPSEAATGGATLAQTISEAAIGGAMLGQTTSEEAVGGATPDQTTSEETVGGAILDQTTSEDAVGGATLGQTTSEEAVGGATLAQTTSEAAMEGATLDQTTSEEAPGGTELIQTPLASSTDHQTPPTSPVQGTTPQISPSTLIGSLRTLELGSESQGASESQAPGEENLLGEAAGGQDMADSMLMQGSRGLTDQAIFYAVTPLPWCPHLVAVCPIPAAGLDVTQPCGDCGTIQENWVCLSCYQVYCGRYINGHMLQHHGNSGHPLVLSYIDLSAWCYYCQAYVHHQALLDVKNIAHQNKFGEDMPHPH

A549 = assay: Antiproliferative activity against human A549 cells
HepG2 = assay: Antiproliferative activity against human HepG2 cells; assay type: functional, cell-based
HCT-116 = assay: cells; details: Homo sapiens
Description: Antiproliferative activity against human HCT-116 cells

[2] = Cytotoxicity against human NCM460 cells; assay type: toxicity, cell-based
HT-29 = assay: Antiproliferative activity against human HT-29 cells; assay type: functional, cell-based
[3] = Cytotoxicity against human L02 cells; assay type: toxicity, cell-based
Histone deacetylase 1 = Histone deacetylase 1 (Homo sapiens, UniProt Q13547); assay: Inhibition of HDAC1 (unknown origin)
U-87 MG [4] = assay: cells; assay type: functional, cell-based, U-87MG ATCC; details: Homo sapiens, 72 h
Description: Antiproliferative activity against human U-87 MG cells assessed as inhibition of cell growth measured after 72 hrs by MTT assay

C6 [5] = assay: Antitumor activity against rat C6 cells allografted in Sprague-Dawley rat assessed as survival time at 20 mg/kg, po measured for 20 days; assay type: functional; details: time 20 day
C6 [6] = assay: cells; assay type: functional, cell-based; details: Rattus norvegicus, C6, 72 h
Description: Antiproliferative activity against rat C6 cells assessed as inhibition of cell growth measured after 72 hrs by MTT assay

U-87 MG [7] = assay: Antitumor activity against luciferase-transferred human U-87 MG cells xenografted in athymic nude mouse assessed as survival time at 25 mg/kg, po measured for 20 days; assay type: functional, U-87MG ATCC; details: time 20 day
U-87 MG [8] = assay: Antitumor activity against luciferase-transferred human U-87 MG cells xenografted in athymic nude mouse assessed as survival time at 150 mg/kg, po measured for 20 days; assay type: functional, U-87MG ATCC; details: time 20 day
C6 [9] = assay: Antitumor activity against rat C6 cells allografted in Sprague-Dawley rat assessed as survival time at 150 mg/kg, po measured for 20 days; assay type: functional; details: time 20 day
[10] = Cytotoxicity against human L02 cells assessed as inhibition of cell growth incubated for 48 hrs by MTT assay; assay type: toxicity, cell-based
[11] = Metabolic stability in mouse liver microsomes assessed as half life at 1 uM incubated in presence of NADPH by LC-MS/MS analysis; assay type: ADME, Microsome
[12] = Cytotoxicity against HEK293 cells assessed as inhibition of cell growth incubated for 48 hrs by MTT assay; assay type: toxicity, cell-based; details: human
RPMI-8226 [13] = assay: Antitumor activity against human RPMI-8226 cells xenografted in BALB/c-nu mouse assessed as reduction in tumor growth by measuring relative increment ratio T/C at 50 mg/kg/day, ip administered for 19 days and measured every 3 days by vernier caliper relative to control; assay type: functional; details: time 19 day
RPMI-8226 [14] = assay: Antiproliferative activity against human RPMI-8226 cells assessed as inhibition of cell growth incubated for 48 hrs by MTT assay; assay type: functional, cell-based; details: RPMI-8226, 48 h
[15] = target: T1, Protein deacetylase HDAC6; assay: Inhibition of HDAC6 (unknown origin) using Boc-Lys(acetyl)-AMC as substrate preincubated for 5 mins followed by substrate addition and measured after 30 mins by fluorescence based assay
U-266 = assay: cells; assay type: functional, cell-based; details: Homo sapiens, U-266, 48 h
MM1.S = assay: Antiproliferative activity against human MM1.S cells assessed as inhibition of cell growth incubated for 48 hrs by MTT assay; assay type: functional, cell-based
BE(2)-C [16] = assay: Antitumor activity against human BE2C cells xenografted in mouse assessed as tumor growth inhibition at 5 mg/kg, ip relative to control; assay type: functional; details: read-out: TGI
BE(2)-C [17] = assay: Antitumor activity against human BE2C cells xenografted in mouse assessed as tumor growth inhibition at 5 mg/kg, ip in presence of 50 mg/kg vorinostat relative to control; assay type: functional; details: read-out: TGI
[18] = target: MAP kinase-interacting serine/threonine-protein kinase 2 (Homo sapiens) (UniProt Q9HBH9); assay: Inhibition of MNK2 (unknown origin) at 1 uM incubated for 60 mins by HTRF assay relative to control
PC-3 = assay: cells; assay type: functional; details: Homo sapiens, time 96 hrs
Histone deacetylase = assay: Inhibition of HDAC in human HeLa cell nuclear extract using Boc-Lys(Ac)-AMC as substrate preincubated for 15 mins followed by substrate addition and measured after 60 mins by fluorescence based analysis; assay type: subcellular, Nucleus
[19] = target: MAP kinase-interacting serine/threonine-protein kinase 1 (Homo sapiens) (UniProt Q9BUB5); assay: Inhibition of MNK1 (unknown origin) at 1 uM incubated for 60 mins by HTRF assay relative to control
Chain of MAP kinase-interacting serine/threonine-protein kinase 1 (Homo sapiens) (Q9BUB5 whole entry, looked up): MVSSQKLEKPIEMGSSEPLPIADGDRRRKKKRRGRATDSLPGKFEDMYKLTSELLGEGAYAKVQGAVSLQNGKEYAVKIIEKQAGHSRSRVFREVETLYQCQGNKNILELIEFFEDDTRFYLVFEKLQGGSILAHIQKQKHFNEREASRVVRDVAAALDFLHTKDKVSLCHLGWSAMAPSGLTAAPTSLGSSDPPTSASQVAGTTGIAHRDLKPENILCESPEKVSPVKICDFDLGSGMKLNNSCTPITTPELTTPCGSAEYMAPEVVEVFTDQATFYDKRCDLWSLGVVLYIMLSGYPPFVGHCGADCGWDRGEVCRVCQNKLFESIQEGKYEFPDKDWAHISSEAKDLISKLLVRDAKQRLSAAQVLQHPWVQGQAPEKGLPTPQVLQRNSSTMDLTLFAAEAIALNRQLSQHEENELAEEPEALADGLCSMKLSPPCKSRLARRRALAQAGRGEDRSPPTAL

Chain of MAP kinase-interacting serine/threonine-protein kinase 2 (Homo sapiens) (Q9HBH9 whole entry, looked up): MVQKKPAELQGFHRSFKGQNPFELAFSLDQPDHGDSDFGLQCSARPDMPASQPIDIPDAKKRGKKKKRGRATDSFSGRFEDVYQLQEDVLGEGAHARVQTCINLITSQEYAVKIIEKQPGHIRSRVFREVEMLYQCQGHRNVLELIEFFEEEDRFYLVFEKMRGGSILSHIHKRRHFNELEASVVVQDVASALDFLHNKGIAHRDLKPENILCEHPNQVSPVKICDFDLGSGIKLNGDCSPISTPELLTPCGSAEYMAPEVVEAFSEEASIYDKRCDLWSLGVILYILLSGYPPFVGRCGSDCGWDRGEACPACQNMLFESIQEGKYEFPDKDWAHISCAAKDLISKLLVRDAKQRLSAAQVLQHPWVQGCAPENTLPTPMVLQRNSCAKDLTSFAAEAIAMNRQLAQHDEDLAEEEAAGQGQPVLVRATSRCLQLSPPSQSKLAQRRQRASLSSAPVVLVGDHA
Chain of Histone deacetylase 1 (Q13547 whole entry): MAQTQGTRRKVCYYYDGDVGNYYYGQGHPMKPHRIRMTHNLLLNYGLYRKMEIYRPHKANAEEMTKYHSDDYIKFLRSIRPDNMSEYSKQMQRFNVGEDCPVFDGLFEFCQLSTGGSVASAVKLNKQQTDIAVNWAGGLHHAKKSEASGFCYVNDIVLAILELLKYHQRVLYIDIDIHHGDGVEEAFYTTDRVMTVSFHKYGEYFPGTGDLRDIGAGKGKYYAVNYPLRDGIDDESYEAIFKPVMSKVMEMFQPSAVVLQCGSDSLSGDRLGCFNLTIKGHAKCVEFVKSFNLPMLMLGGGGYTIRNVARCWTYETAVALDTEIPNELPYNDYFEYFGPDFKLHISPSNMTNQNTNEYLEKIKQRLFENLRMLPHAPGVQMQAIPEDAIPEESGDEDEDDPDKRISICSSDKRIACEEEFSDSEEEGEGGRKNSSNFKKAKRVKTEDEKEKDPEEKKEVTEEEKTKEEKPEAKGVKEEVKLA

IC50 [1]: 450 nM
IC50 (A549): 1410 nM
IC50 (HepG2): 1410 nM
IC50 (HCT-116): 1410 nM
IC50 (HT-29): 1410 nM
IC50 (Histone deacetylase 1): 22 nM
Compound: COc1ccc2c3ccnc(C)c3n(CC3CCN(c4ncc(C(=O)NO)cn4)CC3)c2c1
IC50 [2]: 18500 nM
IC50 [3]: 11300 nM

Compound: O=C(/C=C/c1cccc(S(=O)(=O)n2ccc3cccnc32)c1)NO
IC50 [1]: 32 nM
IC50 (U-87 MG [4]): 1850 nM
Survival (C6 [5]): >20 days
IC50 (C6 [6]): 2250 nM
Survival (U-87 MG [7]): >20 days

Compound: O=C(CCCCCCC(=O)Nc1ccccc1)NO [VORINOSTAT]
Survival (U-87 MG [8]): 13 days
Survival (C6 [9]): 13 days

half-life at 1 µM [11]: > 1 h
IC50 (RPMI-8226 [14]): 620 nM
IC50 [15]: 10 nM
IC50 (U-266): 620 nM
IC50 (MM1.S): 620 nM
Compound: O=C(NO)c1ccc(CNc2ncnc3[nH]ccc23)cc1
IC50 at 48 h [10]: > 50000 nM
IC50 at 48 h [12]: > 50000 nM
T/C (RPMI-8226 [13]): 70%

Compound: CC(=O)O[C@H]1C(=O)[C@@]2(C)[C@H]([C@H](OC(=O)c3ccccc3)[C@]3(O)C[C@H](OC(=O)[C@H](O)[C@@H](NC(=O)c4ccccc4)c4ccccc4)C(C)=C1C3(C)C)[C@]1(OC(C)=O)CO[C@@H]1C[C@@H]2O [PACLITAXEL]
inhibition in vivo at 5 mg/kg (BE(2)-C [16]): 30%
inhibition in vivo at 5 mg/kg (BE(2)-C [17]): 44%

inhibition [18]: 70%
GI50 (PC-3): 2910 nM
IC50 (Histone deacetylase): 780 nM
inhibition [19]: 54%
Compound: O=C(CCCCCCC(=O)Nc1ccc2ncnc(Nc3ccc(F)cc3)c2n1)NO
